Tested on: chronic constriction injury (CCI) of the sciatic nerve, rats
Test: Cold allodynia (acetone application) in chronic constriction injury model
Format: in vivo, rat
Settings: neuropathic pain model as disclosed in Example 2
Experimental: Unilateral sciatic nerve injury was produced under deep anesthesia with i.p injection of sodium pentobarbital (Mebumal, 60 mg/kg), as described by Bennett and Xie (Pain, 33, 87-107(1988)). The common sciatic nerve was exposed and freed for about 10 mm at mid-thigh level. Four ligatures (Ethicon, 4.0 plain gut) were tied loosely around the nerve with about 1-mm spacing creating a chronic constriction injury (CCl), and the incision was closed.
Brisk foot withdrawal in response to acetone application was measured based on the method described by Choi et al. The acetone bubble was gently brought in touch with the plantar surface around the center, and the acetone quickly spread over the central part of the plantar surface of the foot. Applications were made five times (once every 5 min) to each paw. The score for each application was recorded as follows: foot withdrawal was scored as positive (1) and lack of withdrawal as negative (O). The total score (0 to 5) was taken as index for cold sensitivity of the foot […]. This approximates pain from a non-noxious stimulus, i.e. allodynia.
Cold allodynia response was measured 15, 30, 45, 60, 90 and 120 minutes after i.p. administration of ganaxolone (at 1 mg/kg, 3 mg/kg or 10 mg/kg) as well as prior to administration of the neurosteroid and prior to infliction of the neural injury. Table 1 provides the resulting measurement of cold allodynia response in groups of six rats per dosage level. The abbreviation “s.e.m.” means standard error mean.

C[C@]12CC[C@@H](O)C[C@@H]1CC[C@H]1[C@@H]3CC[C@H](C(=O)CO)[C@@]3(C)CC(=O)[C@@H]12 [Alphadolone, reference compound]
Activity in the neuropathic pain model: inactive

— US20060009432A1, “Use of neurosteroids to treat neuropathic pain” (priority 2004, published 2006)
